# Results reported in patent US20030013660A1, “Dioxolane analogs for improved inter-cellular delivery” (Shire BioChem Inc., priority 2000, published 2003).
# Like-named read-outs stand apart in the source and are kept apart here.
# How the values were obtained:
# Test in all cases: 3H-TdR (3H-thymidine) incorporation assay at 72 hr
# H-460 = assay type: cell-based, Human
# SF-268 = assay type: cell-based, Human
# MCF-7 = assay type: cell-based, Human
# CEM/dCK- = assay type: cell-based; conditions: for Factor* (Resistance Factor = Ratio of dCK- on Wild-type CCRF-CEM): ratio of IC50 CEM/dCK- to CCRF-CEM, 24 h
# Method: (§1) Table of IC50 Values (μM) for Controls
# (§2) Exposition of 24 hr to drug, wash, incubated for another 48 hr (total of 72 hr assay)
# (§3) (3H-Thymidine Incorporation Assay)
# CCRF-CEM = assay type: cell-based
# Method: as §1, §2, §3
# [1] = Homo sapiens, NCI-H460, read-out: IC50 H-460 24 h, 24 h drug exposure, wash, another 48 hr, 3H-TdR incorporation at 72 hr
# [2] = Homo sapiens, SF-268, read-out: IC50 SF-268 24 h, 24 h drug exposure, wash, another 48 hr, 3H-TdR incorporation at 72 hr
# [3] = Homo sapiens, MCF7, read-out: IC50 MCF-7 24 h, 24 h drug exposure, wash, another 48 hr, 3H-TdR incorporation at 72 hr
# [4] = Homo sapiens, CCRF-CEM, read-out: IC50 CEM/dCK- 24 h, 24 h drug exposure, wash, another 48 hr, deoxycytidine kinase-deficient CCRF-CEM
# [5] = Homo sapiens, CCRF-CEM, read-out: IC50 CCRF-CEM 24 h, 24 h drug exposure, wash, another 48 hr, 3H-TdR incorporation at 72 hr
# [6] = Homo sapiens, NCI-H460, read-out: IC50 H-460 24 h
# [7] = Homo sapiens, SF-268, read-out: IC50 SF-268 24 h
# [8] = Homo sapiens, MCF7, read-out: IC50 MCF-7 24 h
# [9] = Homo sapiens, CCRF-CEM, read-out: IC50 CEM/dCK- 24 h
# [10] = Homo sapiens, CCRF-CEM, read-out: IC50 CCRF-CEM 24 h
SMILES,IC50 (H-460; [1]) [nM],IC50 (SF-268; [2]) [nM],IC50 (MCF-7; [3]) [nM],IC50 (CEM/dCK-; [4]) [µM],Factor* (Resistance Factor = Ratio of dCK- on Wild-type CCRF-CEM) (CEM/dCK-),IC50 (CCRF-CEM; [5]) [nM],further results
"O=C(Nc1ccn([C@@H]2CO[C@H](COC(=O)C34CC5CC(CC(C5)C3)C4)O2)c(=O)n1)OCc1ccccc1 [Compound 101, ADAMANTANE-1-CARBOXYLIC ACID 4-(4- BENZYLOXYCARBONYLAMINO- 2-OXO-2H-PYRIMIDIN-1- YL)-[1,3]DIOXOLAN-2- YLMETHYL ESTER]",330,2100,410,16,44,360,
"CC(C)(OCc1ccccc1)OC[C@H]1OC[C@@H](n2ccc(N)nc2=O)O1 [Compound 154, 4-AMINO-1-[2-(1- BENZYLOXY-1-METHYL- ETHOXYMETHYL)- [1,3]DIOXOLAN-4-YL]-1H- PYRIMIDIN-2-ONE]",760,4400,1600,> 100,>714,140,
"COC(OC)OC[C@H]1OC[C@@H](n2ccc(N)nc2=O)O1 [Compound 38, 4-AMINO-1-(2- DIMETHOXYMETHOXYMETHYL- [1,3]DIOXOLAN-4-YL)-1H- PYRIMIDIN-2-ONE]",340,900,1000,> 100,909,110,
"Nc1ccn([C@@H]2CO[C@H](CO[C@@H]3O[C@H](CO)[C@@H](O)[C@H]3O)O2)c(=O)n1.O=C(O)C(F)(F)F [Compound 85, 4-AMINO-1-[2-(3,4- DIHYDROXY-5- HYDROXYMETHYL- TETRAHYDROFURAN-2- YLOXYMETHYL)- [1,3]DIOXOLAN-4-YL]- 1HPYIMIDIN-2-ONE, TRIFLUOROACETIC ACID SALT]",690,16000,6800,> 100,38,2600,
"COc1ccc(C(OC[C@H]2OC[C@@H](n3ccc(N)nc3=O)O2)(c2ccccc2)c2ccc(OC)cc2)cc1 [Compound 123, 4-AMINO-1-{2-[BIS-(4- METHOXY-PHENYL)-PHENYL- METHOXYMETHYL]- [1,3]DIOXOLAN-4-YL}-1H- PYRIMIDIN-2-ONE]",1000,2000,1400,15,17,870,
"Nc1ccn([C@@H]2CO[C@H](COC(=O)Cc3ccccc3)O2)c(=O)n1 [Compound 52, (2S,4S)-2- PHENYLACETOXYMETHYL-4- CYTOSIN-1′-YL-1,3- DIOXOLANE]",,,,,400,,IC50 (H-460; [6]): 6.8 nM; IC50 (SF-268; [7]): 32 nM; IC50 (MCF-7; [8]): 88 nM; IC50 (CEM/dCK-; [9]): 0.48 µM; IC50 (CCRF-CEM; [10]): 1.2 nM
N=C(OC[C@H]1OC[C@@H](n2ccc(N)nc2=O)O1)C(Cl)(Cl)Cl [Compound 79],,,,,"4,500",,IC50 (H-460; [6]): 120 nM; IC50 (SF-268; [7]): 160 nM; IC50 (MCF-7; [8]): 170 nM; IC50 (CCRF-CEM; [10]): 14 nM
"COC(OC)(OC[C@H]1OC[C@@H](n2ccc(N)nc2=O)O1)c1ccccc1 [Compound 139, 4-AMINO-1-[2- (DIMETHOXY-PHENYL- METHOXYMETHYL)- [1,3]DIOXOLAN-4-YL]-1H- PYRIMIDIN-2-ONE]",810,1300,1400,> 100,>250,400,"IC50 (H-460; read-out: IC50 H-460 24 h, 24 h drug exposure, wash, another 48 hr, 3H-TdR incorporation at 72 hr): 510 nM; IC50 (SF-268; read-out: IC50 SF-268 24 h, 24 h drug exposure, wash, another 48 hr, 3H-TdR incorporation at 72 hr): 1700 nM; IC50 (MCF-7; read-out: IC50 MCF-7 24 h, 24 h drug exposure, wash, another 48 hr, 3H-TdR incorporation at 72 hr): 1700 nM; IC50 (CCRF-CEM; read-out: IC50 CCRF-CEM 24 h, 24 h drug exposure, wash, another 48 hr, 3H-TdR incorporation at 72 hr): 420 nM"
"COc1ccc(OC(=O)Nc2ccn([C@@H]3CO[C@H](CO)O3)c(=O)n2)cc1 [Compound 73, [1-(2-HYDROXYMETHYL- [1,3]DIOXOLAN-4-YL)-2- OXO-1,2-DIHYDRO- […]-4-YL]- CARBAMIC ACID 4- METHOXY-PHENYL ESTER]",,,,,990,,IC50 (H-460; [6]): 270 nM; IC50 (SF-268; [7]): 30 nM; IC50 (MCF-7; [8]): 260 nM; IC50 (CEM/dCK-; [9]): 99 µM; IC50 (CCRF-CEM; [10]): 100 nM
"O=C(NCc1ccccc1)Nc1ccn([C@@H]2CO[C@H](CO)O2)c(=O)n1 [Compound 108, 1-BENZYL-3-[1-(2- HYDROXYMETHYL- [1,3]DIOXOLAN-4-YL)-2- OXO-1,2-DIHYDRO- PYRIMIDIN-4-YL]-UREA]",1800,3800,27000,> 100,>29,3400,
"CC(C)(C)OC(=O)N(CCCCCC(=O)Nc1ccn([C@@H]2CO[C@H](COC(=O)CCCCCN(Cc3ccccc3)C(=O)OC(C)(C)C)O2)c(=O)n1)Cc1ccccc1 [Compound 78, 6-(Benzyl-tert-butoxycarbonyl-amino)-hexanoic acid 4-{4-[6-(benzyl-tert-butoxycarbonyl-amino)-hexanoylamino]-2-oxo-2H-pyrimidin-1-yl}-[1,3]dioxolan-2-ylmethyl ester]",42,95,45,13,351,37,
"CN(Cc1ccccc1)C(=O)OC[C@H]1OC[C@@H](n2ccc(N)nc2=O)O1 [Compound 140, BENZYL-METHYL-CARBAMIC ACID 4-(4-AMINO-2-OXO- 2H-PYRIMIDIN-1-YL)- [1,3]DIOXOLAN-2- YLMETHYL ESTER]",10000,3000,20000,> 100,>9,11000,
"CC(C)(C)OC(=O)N(CCCCC(=O)OC[C@H]1OC[C@@H](n2ccc(N)nc2=O)O1)Cc1ccccc1 [Compound 111, 5-(BENZYL-TERT- BUTOXYCARBONYL-AMINO)- PENTANOIC ACID 4-(4- AMINO-2-OXO-2H- PYRIMIDIN-1-YL)- [1,3]DIOXOLAN-2- YLMETHYL ESTER]",0.13,2.1,0.26,2.6,13000,0.2,
"O=C(Nc1ccn([C@@H]2CO[C@H](CO)O2)c(=O)n1)OCc1ccccc1 [Compound 50, [1-(2-HYDROXYMETHYL- [1,3]DIOXOLAN-4-YL)- CYTOSYL]-CARBAMIC ACID BENZYL ESTER]",1200,1300,820,> 100,588,170,
"O=C(Nc1ccn([C@@H]2CO[C@H](COC(=O)C34CC5CC(CC(C5)C3)C4)O2)c(=O)n1)C12CC3CC(CC(C3)C1)C2 [Compound 102, ADAMANTANE-1-CARBOXYLIC ACID 4-{4-[(ADAMANTANE- 1-CARBONYL)-AMINO]-2- OXO-2H-PYRIMIDIN-1-YL}- [1,3]DIOXOLAN-2- YLMETHYL ESTER]",190,1000,1700,11,27,410,
"CC(C)CC(=O)OC[C@H]1OC[C@@H](n2ccc(N)nc2=O)O1 [Compound 278, 3-METHYL-BUTYRIC ACID 4-(4-AMINO-2-OXO-2H- PYRIMIDIN-1-YL)- [1,3]DIOXOLAN-2-YL METHYL ESTER]",79,93,38,71.2,,28,"IC50 (H-460; Homo sapiens, NCI-H460, read-out: IC50 H-460 (72 h), 72 h exposure, 3H-TdR incorporation at 72 hr): 2.4 nM; IC50 (SF-268; Homo sapiens, SF-268, read-out: IC50 SF-268 (72 h), 72 h exposure, 3H-TdR incorporation at 72 hr): 13 nM; IC50 (MCF-7; Homo sapiens, MCF7, read-out: IC50 MCF-7 (72 h), 72 h exposure, 3H-TdR incorporation at 72 hr): 23 nM; IC50 (CEM/dCK-; read-out: IC50 CEM/dCK- 24 h, 24 h drug exposure, wash, another 48 hr, deoxycytidine kinase-deficient CCRF-CEM): 91 µM"
"CC(C)c1ccc(NC(=O)OC[C@H]2OC[C@@H](n3ccc(NC(=O)OCc4ccccc4)nc3=O)O2)cc1 [Compound 124, {1-[2-(4-ISOPROPYL- PHENYLCARBAMOYLOXYMETHY L)-[1,3]DIOXOLAN-4-YL]- 2-OXO-1,2-DIHYDRO- PYRIMIDIN-4-YL}- CARBAMIC ACID BENZYL ESTER]",13000,49000,14000,27,˜2,14000,
"CCCCOC(=O)Nc1ccn([C@@H]2CO[C@H](CO)O2)c(=O)n1 [Compound 59, [1-(2-HYDROXYMETHYL- [1,3]DIOXOLAN-4-YL)-2- OXO-1,2-DIHYDRO- PYRIMIDIN-4-YL]- CARBAMIC ACID BUTYL ESTER]",1400,690,190,> 100,185,540,
